Details: Liquid; for vapor or sublimation pressure: Closed cell (Static) method; for mass density / kinematic viscosity: 101.33 kPa; for mass density: Pycnometric method; for kinematic viscosity: Capillary tube (Ostwald / Ubbelohde) method

CCCCCCCCCCCCCCCC(=O)OC [methyl hexadecanoate]
Details	vapor or sublimation pressure [kPa]
407.12 K	0.13
414.26 K	0.21
418.18 K	0.24
422.34 K	0.27
424.68 K	0.305
427.54 K	0.365
429.32 K	0.415
432.32 K	0.42
434.18 K	0.515
437.3 K	0.545
438.44 K	0.56
439.6 K	0.65
441 K	0.66
445.36 K	0.84
447.06 K	0.85

CCCCCC[C@@H](O)CC=CCCCCCCCC(=O)OC [[R]-methyl 12-hydroxy-9-octadecenoate]
Details	kinematic viscosity [m2/s]	mass density [kg/m3]	vapor or sublimation pressure [kPa]
293.16 K	–	928.5	–
298.23 K	2.95e-05	–	–
303.13 K	2.35e-05	–	–
303.17 K	–	921.2	–
308.25 K	1.81e-05	–	–
313.15 K	1.49e-05	–	–
313.33 K	–	916.7	–
318.38 K	1.2e-05	–	–
323.05 K	–	910.3	–
323.08 K	1.01e-05	–	–
328.12 K	8.52e-06	–	–
333.15 K	7.25e-06	–	–
333.25 K	–	904	–
338.05 K	6.26e-06	–	–
343.1 K	5.43e-06	–	–
343.32 K	–	895.8	–
348.06 K	4.76e-06	–	–
353.06 K	–	883.3	–
353.11 K	4.2e-06	–	–
358.15 K	3.73e-06	–	–
363.38 K	–	875	–
373.26 K	–	865.8	–
383.23 K	–	857.5	–
451.58 K	–	–	0.232
454.7 K	–	–	0.276
457.23 K	–	–	0.319
459.5 K	–	–	0.361
461.85 K	–	–	0.41
463.55 K	–	–	0.449
465.2 K	–	–	0.49
466.83 K	–	–	0.533
469.55 K	–	–	0.61
470.4 K	–	–	0.637
471.25 K	–	–	0.665
472.3 K	–	–	0.7
473.15 K	–	–	0.73
474.9 K	–	–	0.794
476.8 K	–	–	0.868
